Experimental data: patent publication US9902752B2, “5-fluorouracil derivatives” (B. Braun Melsungen AG, priority 2012, dated 2018)
Read-outs that look alike come from different tables or passages of the source. Values belong to the compound of their own block, whether it stands above or below them. {19c} = modification given as compound (19c) in the publication; {25} = modification given as compound (25) in the publication; {Cy3} = Cy-3 fluorescent dye

Columns and labels:
[1] = cited from earlier work
[2] = Lipophilicity as chromatographic mobility, RP-18 HPLC retention time; type: physicochemical; settings: MeCN/0.1 M Et3NH+OAc− (35:65, v/v, pH 7.0)
Procedure: RP-18 HPLC was carried out on a 250×4 mm RP-18 column (Merck, Germany) on a Merck-Hitachi HPLC apparatus with one pump (Model 655A-12) connected with a proportioning valve, a variable wavelength monitor (Model 655 A), a controller (Model L-5000), and an integrator (Model D-2000). Solvent: MeCN/0.1 M Et3NH^+OAc^− (35:65, v/v, pH 7.0).
The lipophilicity of various 5-fluorouridine derivatives has been studied since the lipophilicity has inter alia an influence on the incorporation into oligo(2′-deoxynucleotides). The lipophilicity of the novel hydrophobic nucleoside derivatives has been studied in different by two ways: (i) log P values of the compounds were calculated (Table 4) and compared with those of the unmodified nucleoside 1a, (ii) the chromatographic mobilities of the compounds were measured in terms of retention times (tR in min) by RP-18 HPLC.

[3] = tested on: HT-29 (human colon carcinoma) cell line; assay: Viability/survival of HT-29 cells (PrestoBlue); type: cell-based; settings: HT-29, 10-80 μM, 24, 48 or 72 h; vs comparative compounds, 5-fluorouridine and 5-fluorouracil
Procedure: In vitro experiments were performed using HT-29 (human colon carcinoma) cell line (DSMZ, GmbH, Braunschweig, Germany). The cells were cultured in 90% RPMI 1640 supplemented with 10% fetal bovine serum (FBS), 100 U/ml penicillin, 0.1 mg/ml streptomycin. Cells were maintained at 37° C. in a humidified atmosphere of 5% CO2 and 95% air; the medium was changed every 48 h.
1×10^4 human HT-29 in 100 μl medium/well were seeded in 96-well plates (BD Falcon™, Becton Dickinson GmbH, Heidelberg, Germany). After 24 h, the medium was changed and different concentrations of 5-fluorouracil, 5-fluorouridin and 5-fluorouridin derivative molecules (10, 20, 40 or 80 μM) were tested. After 24, 48 or 72 h incubation, viability/survival was measured using PrestoBlue™ reagent (Invitrogen-Life Technologies GmbH, Darmstadt, Germany). PrestoBlue™ reagent is more sensible than alamarBlue®, which is a redox indicator of enzyme activity widely used in whole organism screening for viability/cytotoxicity (1-6). PrestoBlue™ was directly added to the cells into the culture medium at a final concentration of 10%. Thereafter the plates were returned to the incubator. 30 min, 1 h, 2 h, 3 h and 4 h after addition of PrestoBlue™ the optical density (OD) was measured at 570 nm and 600 nm (as reference) with a SUNRISE ELISA-reader (Tecan, Salzburg, Austria). […]

[4] = Free diffusion times of oligonucleotides (without bilayer); type: physicochemical; settings: diluted 50 nM oligomer solution
Procedure: From the fluorescence signals of single molecules which pass the excitation volume, the diffusion constants can be calculated. In order to determine the diffusion times of the fluorescent oligonucleotides within and near the bilayer, they were measured at five different positions above, below and within the layer. At each point five measurements for 30 s, each, were taken. In summary, each measuring protocol was as follows: (i) a reference scan of the stable (empty) bilayer; (ii) addition of the sample with 25 min of incubation, followed by a scan series; (iii) additional scan series, each after a 1., 2., and 3. perfusion (60 s, each).
The diffusion times (μs) of 41 and 42 were measured, both without and in the presence of an artificial bilayer. For the determination of the free diffusion times the corresponding oligomer solution (50 nM) was diluted so that in the confocal measuring volume (˜10^−15 l) only one fluorescent molecule was present. Each measurement was performed ten-fold for 30 s, each. In order to determine the diffusion times of the lipophilized oligonucleotides (41, 42) in the presence of a bilayer five measuring positions above, beneath and in the bilayer were chosen. This was necessary because the bilayer is floating within certain limits, which makes it difficult to target it most exactly (FIG. 5, measuring points 1-5). […]

[5] = Bilayer insertion of lipophilic oligonucleotides (fluorescence scans); type: physicochemical; settings: for incorporation into the artificial bilayer: brightness of the layers, 25 min incubation; for retention in the bilayer after perfusions: perfusions of 60 s each
Procedure: The incorporation of the oligonucleotides into artificial bilayers was performed at a lipid mixture of 1-palmitoyl-2-oleyl-sn-glycero-3-phosphoethanolamine (POPE) and 1-palmitoyl-2-oleyl-sn-glycero-3-phosphocholine (POPC) (8:2, w/w, 100 mg/ml of n-decane). For the preparation of the horizontal bilayers, planar slides (Ionovation GmbH, D-Osnabrück) were used. These slides contain chambers for cis- and trans compartments as well as electrode access (see FIG. 1). The main body of the slides contains of PTFE foil (thickness, 25 μm) with an aperture of ˜100 μm diameter. This foil separates the chamber into the cis- and trans compartments which are only connected by the aperture. After filling of the chamber with buffer (250 mM KCl, 10 mM MOPS/TRIS, pH 7), the cis- and trans compartments were linked with Ag/AgCl electrodes—embedded in agarose/3 M KCl). Then, a soln. of the POPC/POPE lipid mixture (0.2 μl) is applied onto the aperture of the PTFE foil using a Hamilton syringe (Hamilton, CH-Bonaduz). A small Faraday cage shields the bilayer and the electrodes from HF-electrical noise. Next, a bilayer is made-up automatically using a perfusion system (Bilayer Explorer V01, Ionovation GmbH, D-Osnabrück). The formation of a stable bilayer was monitored both, optically using a laser scanning microscope (Insight Cell 3D, Evotec Technologies GmbH, D-Hamburg) as well as electrically by capacity measurements. When a stable bilayer had been obtained (capacity, […]), the corresponding oligonucleotide soln. (50 nM, 4 μl) was injected into the cis compartment of the chip. During an incubation time of 25 min the intactness of the bilayer was electro-physiologically controlled using a headstage EPC 10 USB with a patch clamp amplifier (software: Patchmaster, HEKA Elektronik Dr. Schulze GmbH, D-Lambrecht). The optical pictures of fluorescence fluctuations were obtained with a confocal laser scanning microscope (Insight Cell 3D, Evotec Technologies GmbH, D-Hamburg), equipped with a He—Ne laser (543 nm), a 40× water-immersion objective (UApo 340, 40×, NA=1.15, Olympus, 3-Tokyo), and an Avalanche photodiode detector (SPCM-AQR-13-FC, Perkin-Elmer Optoelectronics, Fremont, USA). Fluorescence irradiation was obtained with a laser power of 200±5 μW. 2D and 3D scans were performed by scanning the confocal spot in XY direction with a rotating beam scanner and movement of the objective in Z direction. The movement in both directions was piezo controlled which allows a nano-meter precise positioning. For the 2D pictures (Z-scans, FIGS. 2 and 3) the confocal plane was moved in 100 nm steps. […]

[6] = Diffusion times of oligonucleotides in the presence of a lipid bilayer; type: physicochemical
Procedure: The incorporation of the oligonucleotides into artificial bilayers was performed at a lipid mixture of 1-palmitoyl-2-oleyl-sn-glycero-3-phosphoethanolamine (POPE) and 1-palmitoyl-2-oleyl-sn-glycero-3-phosphocholine (POPC) (8:2, w/w, 100 mg/ml of n-decane). For the preparation of the horizontal bilayers, planar slides (Ionovation GmbH, D-Osnabrück) were used. These slides contain chambers for cis- and trans compartments as well as electrode access (see FIG. 1). The main body of the slides contains of PTFE foil (thickness, 25 μm) with an aperture of ˜100 μm diameter. This foil separates the chamber into the cis- and trans compartments which are only connected by the aperture. After filling of the chamber with buffer (250 mM KCl, 10 mM MOPS/TRIS, pH 7), the cis- and trans compartments were linked with Ag/AgCl electrodes—embedded in agarose/3 M KCl). Then, a soln. of the POPC/POPE lipid mixture (0.2 μl) is applied onto the aperture of the PTFE foil using a Hamilton syringe (Hamilton, CH-Bonaduz). […] The formation of a stable bilayer was monitored both, optically using a laser scanning microscope (Insight Cell 3D, Evotec Technologies GmbH, D-Hamburg) as well as electrically by capacity measurements. […] The optical pictures of fluorescence fluctuations were obtained with a confocal laser scanning microscope (Insight Cell 3D, Evotec Technologies GmbH, D-Hamburg), equipped with a He—Ne laser (543 nm), a 40× water-immersion objective (UApo 340, 40×, NA=1.15, Olympus, 3-Tokyo), and an Avalanche photodiode detector (SPCM-AQR-13-FC, Perkin-Elmer Optoelectronics, Fremont, USA). Fluorescence irradiation was obtained with a laser power of 200±5 μW. […]
From the fluorescence signals of single molecules which pass the excitation volume, the diffusion constants can be calculated. In order to determine the diffusion times of the fluorescent oligonucleotides within and near the bilayer, they were measured at five different positions above, below and within the layer. […]
The diffusion times (μs) of 41 and 42 were measured, both without and in the presence of an artificial bilayer. […]

[7] = pKBH+ value of the nucleoside; type: physicochemical
[8] = 1N aq. HCl/MeCN, 1:1 (v/v); cited from earlier work
[9] = measuring point 3, after 1. perfusion

Compound: O=c1[nH]cc(F)c(=O)[nH]1 [fluorouracil, 5-fluorouracil]
- half life ([1]; with uracil (UFT, DPD inhibition)): 10 to 14 h
- half life ([1]; without uracil): 0.167 to 0.5 h

- RP-18 HPLC tR [2]: 87 min
Compound: CCCC1(CCC)OC2C(O1)[C@@H](CO)O[C@H]2n1cc(F)c(=O)n(C/C=C(\C)CC/C=C(\C)CCC=C(C)C)c1=O (stereo partly drawn) [Compound 25, 5-Fluoro-1-((3aR,4R,6R,6aR)-6-(hydroxymethyl)-2,2-dipropyitetrahydrofuro-[3,4-d][1,3]dioxol-4-yl)-3-((2E,6E)-3,7,11-trimethyldodeca-2,6,10-trien-1-yl)pyrimidine-2,4(1H,3H)-dione]

- RP-18 HPLC tR [2]: 24 min
Compound: CC(C)=CCC/C(C)=C/CC/C(C)=C/Cn1c(=O)c(F)cn([C@@H]2O[C@H](CO)[C@H]3OC(C)(C)O[C@H]32)c1=O [Compound 24, 5-Fluoro-1-((3aR,4R,6R,6aR)-6-(hydroxymethyl)-2,2-dimethyltetrahydrofuro-[3,4-d][1,3]dioxol-4-yl)-3-((2E,6E)-3,7,11-trimethyldodeca-2,6,10-trien-1-yl)pyrimidine-2,4(1H,3H)-dione]

- RP-18 HPLC tR [2]: >600 min
Compound: CCCCCCCCCC1(CCCCCCCCC)O[C@@H]2[C@H](O1)[C@@H](CO)O[C@H]2n1cc(F)c(=O)[nH]c1=O [Compound 19c, 5-Fluoro-1-((3aR,4R,6R,6aR)-6-(hydroxymethyl)-2,2-dinonyltetrahydrofuro[3,4-d][1,3]dioxol-4-yl)pyrimidine-2,4(1H,3H)-dione]

Compound: CC(C)=CCC/C(C)=C/CC/C(C)=C/Cn1c(=O)c(F)cn([C@@H]2O[C@H](CO)C3OC4(CCCCCCCCCCC4)OC32)c1=O (some centres unmarked) [Compound 31a, 2′,3′-O-Cyclododecane-1,1-diyl-5-fluoro-3-[(2E,6E)-3,7,11-trimethyldodeca-2,6,10-trien-1-yl]uridine]
- activity against carcinoma cells [3]: significant higher activity

- melting point: 196 to 197 °C
Compound: CC1(C)O[C@@H]2[C@H](O1)[C@@H](CO)O[C@H]2n1cc(F)c(=O)[nH]c1=O [Compound 19a, 5-Fluoro-1-((3aR,4R,6R,6aR)-6-(hydroxymethyl)-2,2-dimethyltetrahydrofuro[3,4-d][1,3]dioxol-4-yl)pyrimidine-2,4(1H,3H)-dione]

Compound: 5′-d[(25)-(Cy-3)-TAG GTC AAT ACT] (DNA TAGGTCAATACT; DNA, 5' {25}-{Cy3}, backbone not given here) [Oligomer 41]
- Free diffusion time [4]: 279.67 ± 141.08 μs
- incorporation into the artificial bilayer [5]: successfully incorporated
- retention in the bilayer after perfusions [5]: brightness of the layer decreases after two perfusions
- Diffusion time in the presence of a bilayer [6, 9]: 33547 ± 16751, after 1. perfusion μs

- RP-18 HPLC tR [2]: 27 min
Compound: CC(C)=CCC/C(C)=C/CC/C(C)=C/Cn1c(=O)c(F)cn([C@@H]2O[C@H](CO)[C@@H](O)[C@H]2O)c1=O [Compound 23, 1-((2R,3R,4S,5R)-3,4-dihydroxy-5-(hydroxymethyl)tetrahydrofuran-2-yl)-5-fluoro-3-((2E,6E)-3,7,11-trimethyldodeca-2,6,10-trien-1-yl)pyrimidine-2,4(1H,3H)-dione]

Compound: 5′-d[(19c)-(Cy-3)-TAG GTC AAT ACT]. (DNA TAGGTCAATACT; DNA, 5' {19c}-{Cy3}, backbone not given here) [Oligomer 42]
- Free diffusion time [4]: 390.39 ± 249.05 μs
- incorporation into the artificial bilayer [5]: better inserted
- retention in the bilayer after perfusions [5]: do not lead to a significant removal
- Diffusion time in the presence of a bilayer [6, 9]: 75952 ± 8201, after 1 perfusion μs
- Diffusion time in the presence of a bilayer ([6]; measuring point 3, after 3. perfusion): 19891 ± 3266, after 3. perfusion μs

- pKBH+ [7]: 8.0±0.1
- RP-18 HPLC tR [2]: 1 min
Compound: O=c1[nH]c(=O)n([C@@H]2O[C@H](CO)[C@@H](O)[C@H]2O)cc1F [Compound 1a, 5-Fluorouridine, reference compound]

Compound: CCCC1(CCC)OC2[C@@H](O1)[C@@H](CO)O[C@H]2n1cc(F)c(=O)[nH]c1=O (some centres unmarked) [Compound 19b, 5-Fluoro-2,3′-O-(1-propylbutylidene)uridine]
- acidic stability at the ketal group, T [8]: 130 min
